Assay results: patent US10626144B2, “Peptide derivatives and uses thereof” (Nosopharm, priority 2014, dated 2020)
Square brackets hold non-standard residues; d marks the D form. Peptide text beside a SMILES is read from it. ξ: configuration not given here. Phe(2-CF3) = N[C@@H](Cc1ccccc1C(F)(F)F)C(=O)O; Phe(2,4-Me2) = Cc1ccc(C[C@H](N)C(=O)O)c(C)c1; Phe(2-CONH2) = NC(=O)c1ccccc1C[C@H](N)C(=O)O; Oic(3aξ,7aξ) = O=C(O)[C@@H]1CC2CCCCC2N1; Phe(2-CN) = N#Cc1ccccc1C[C@H](N)C(=O)O; Phe(2-Cl) = N[C@@H](Cc1ccccc1Cl)C(=O)O; Dab(3S-OH) = NC[C@H](O)[C@H](N)C(=O)O; Phe(2-Me) = Cc1ccccc1C[C@H](N)C(=O)O; ΔZArg = N=C(N)NCC/C=C(\N)C(=O)O; dOrn = NCCC[C@@H](N)C(=O)O

Assays:
Assay in all cases: MIC, broth microdilution (CLSI), reference strain
Conditions in all cases: CAMHB
[1] = tested on: Staphylococcus aureus ATCC 13709
[2] = tested on: Escherichia coli ATCC 25922
[3] = tested on: Acinetobacter baumannii ATCC 19606
[4] = tested on: Pseudomonas aeruginosa ATCC 27853

Compound	Sa: MIC Staphylococcus aureus ATCC 13709 [1]	Ec: MIC Escherichia coli ATCC 25922 [2]	Ab: MIC Acinetobacter baumannii ATCC 19606 [3]	Pa: MIC Pseudomonas aeruginosa ATCC 27853 [4]
C[C@H](NC(=O)[C@@H](NC(=O)[C@@H](N)CCCCN)[C@@H](O)CN)C(=O)NCC(=O)N[C@H](CCCN)C(=O)N1C2CCCCC2C[C@H]1C(=O)N[C@@H](Cc1cnc[nH]1)C(=O)N[C@@H](CCCCN)C(=O)N/C(=C\CCNC(=N)N)C(=O)O (stereo partly drawn) [24.75] (H-K[Dab(3S-OH)]AG[dOrn][Oic(3aξ,7aξ)]HK[ΔZArg]-OH)	+ (≤32 μg/mL)	+ (≤32 μg/mL)	− (>32 μg/mL)	− (>32 μg/mL)
Cc1ccc(C[C@H](NC(=O)[C@@H]2CCCN2C(=O)[C@@H](CCCN)NC(=O)CNC(=O)[C@H](C)NC(=O)[C@@H](NC(=O)[C@@H](N)CCCCN)[C@@H](O)CN)C(=O)N[C@@H](CCCCN)C(=O)N/C(=C\CCNC(=N)N)C(=O)O)c(C)c1 [24.78] (H-K[Dab(3S-OH)]AG[dOrn]P[Phe(2,4-Me2)]K[ΔZArg]-OH)	++ (≤8 μg/mL)	+ (≤32 μg/mL)	− (>32 μg/mL)	− (>32 μg/mL)
C[C@H](NC(=O)[C@@H](NC(=O)[C@@H](N)CCCCN)[C@@H](O)CN)C(=O)NCC(=O)N[C@H](CCCN)C(=O)N1CCC[C@H]1C(=O)N[C@@H](Cc1ccccc1Cl)C(=O)N[C@@H](CCCCN)C(=O)N/C(=C\CCNC(=N)N)C(=O)O [24.80] (H-K[Dab(3S-OH)]AG[dOrn]P[Phe(2-Cl)]K[ΔZArg]-OH)	++ (≤8 μg/mL)	+ (≤32 μg/mL)	− (>32 μg/mL)	− (>32 μg/mL)
C[C@H](NC(=O)[C@@H](NC(=O)[C@@H](N)CCCCN)[C@@H](O)CN)C(=O)NCC(=O)N[C@H](CCCN)C(=O)N1CCC[C@H]1C(=O)N[C@@H](Cc1ccccc1C(N)=O)C(=O)N[C@@H](CCCCN)C(=O)N/C(=C\CCNC(=N)N)C(=O)O [24.82] (H-K[Dab(3S-OH)]AG[dOrn]P[Phe(2-CONH2)]K[ΔZArg]-OH)	+ (≤32 μg/mL)	− (>32 μg/mL)	− (>32 μg/mL)	− (>32 μg/mL)
Cc1ccccc1C[C@H](NC(=O)[C@@H]1CCCN1C(=O)[C@@H](CCCN)NC(=O)CNC(=O)[C@H](C)NC(=O)[C@@H](NC(=O)[C@@H](N)CCCCN)[C@@H](O)CN)C(=O)N[C@@H](CCCCN)C(=O)N/C(=C\CCNC(=N)N)C(=O)O [24.83] (H-K[Dab(3S-OH)]AG[dOrn]P[Phe(2-Me)]K[ΔZArg]-OH)	++ (≤8 μg/mL)	+ (≤32 μg/mL)	− (>32 μg/mL)	− (>32 μg/mL)

The next lines start with the values.

Sa: MIC Staphylococcus aureus ATCC 13709 [1]	Ec: MIC Escherichia coli ATCC 25922 [2]	Ab: MIC Acinetobacter baumannii ATCC 19606 [3]	Pa: MIC Pseudomonas aeruginosa ATCC 27853 [4]	Compound
++ (≤8 μg/mL)	+ (≤32 μg/mL)	− (>32 μg/mL)	− (>32 μg/mL)	C[C@H](NC(=O)[C@@H](NC(=O)[C@@H](N)CCCCN)[C@@H](O)CN)C(=O)NCC(=O)N[C@H](CCCN)C(=O)N1CCC[C@H]1C(=O)N[C@@H](Cc1ccccc1C(F)(F)F)C(=O)N[C@@H](CCCCN)C(=O)N/C(=C\CCNC(=N)N)C(=O)O [24.79] (H-K[Dab(3S-OH)]AG[dOrn]P[Phe(2-CF3)]K[ΔZArg]-OH)
− (>32 μg/mL)	− (>32 μg/mL)	− (>32 μg/mL)	− (>32 μg/mL)	C[C@H](NC(=O)[C@@H](NC(=O)[C@@H](N)CCCCN)[C@@H](O)CN)C(=O)NCC(=O)N[C@H](CCCN)C(=O)N1CCC[C@H]1C(=O)N[C@@H](Cc1ccccc1C#N)C(=O)N[C@@H](CCCCN)C(=O)N/C(=C\CCNC(=N)N)C(=O)O [24.81] (H-K[Dab(3S-OH)]AG[dOrn]P[Phe(2-CN)]K[ΔZArg]-OH)
